Experimental findings from paper PMC12207802, “Discovery of coniferaldehyde as an inhibitor of caseinolytic protease to combat Staphylococcus aureus infections” (Molecular Medicine, 2025) are described below.

This assay concerns the target T1, Caseinolytic protease P (ClpP) (Staphylococcus aureus, UniProt Q2G036).
T1 construct: clpP of S. aureus NCTC 8325-4 in pET-28a (+), Ni-purified
Kind of assay: fluorogenic Suc-Leu-Tyr-AMC peptidase assay with purified ClpP; supported by fluorescence quenching (Ka), CETSA, CD and ClpXP GFP-SsrA degradation. It counts as biochemical.

T1 sequence (Q2G036 whole entry): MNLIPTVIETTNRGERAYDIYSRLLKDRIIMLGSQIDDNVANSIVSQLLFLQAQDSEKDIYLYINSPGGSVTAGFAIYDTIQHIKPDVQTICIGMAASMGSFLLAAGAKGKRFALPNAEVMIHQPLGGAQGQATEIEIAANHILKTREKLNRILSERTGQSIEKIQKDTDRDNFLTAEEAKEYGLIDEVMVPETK

With `COc1cc(/C=C/C=O)ccc1O` [CA, 4-hydroxy-3-methoxycinnamaldehyde], 103 µM corresponded to half-maximal inhibition (IC50).
